The values that follow come from US10390536B2, “Methods, compounds and compositions for repelling insects and/or arachnids” (National Center for Scientific Research “Demokritos”, priority 2013, dated 2019).

Format in all cases: in vivo
One assay relates to Anopheles gambiae s.l. The assay can be described thus: experimental hut field trial of spatial repellence, Anopheles. To be noted: single compound, 1 ml in open vial in MM-X trap, per night. How it is done: (§1) To test the effects of repellent compounds or compositions disclosed herein on mosquitoes in a controlled environment resembling actual living quarters and conditions, field trials with standardized experimental huts were conducted at Kainji Dam in North Central Nigeria.
(§2) Six such huts were built in a straight line, and the distance between huts was 11 meters. These huts follow a traditional square design, the walls are built with concrete blocks that are subsequently plastered with cement, each wall has a window. The ceiling is plywood and the roof is thatched with eaves that are open, thereby allowing free flow of air into and out of the hut, and thus entry and exit of mosquitoes. There is a door for entry and exit. Two opposing sides of each hut have window exit traps and screened verandas to capture mosquitoes leaving via the windows or eaves. Each hut is raised off the ground on a concrete platform and surrounded by a moat filled with water in order to prevent ants from entering. Each hut is fitted with a mattress and an untreated bed net for sleepers. These huts are similar in design and concept to those used previously elsewhere for studying mosquito behavior and measuring the efficacy of various mosquito control products or intervention methods in Tanzania and Gambia. For design parameters refer to WHOPES 2005. The huts are adjacent to a tributary of the River Niger at a distance of 10 km from the Kainji Dam site and face rice fields known to harbor permanent mosquito breeding sites. The mosquitoes endemic to this area of Nigeria are highly endophillic, that is, they rest mainly indoors.
(§3) Human volunteers that participated as sleepers in this field trial were provided with anti-malarial chemical prophylaxis on a weekly basis, and the protocols used herein were reviewed and approved by the Research Ethics Review Committee of the Nigerian Institute of Medical Research. Six male adult volunteers, aged between 25 and 35 years old, were recruited to sleep in the huts described above. Sleepers were allocated to huts randomly for each series of trials, and this randomization process occurred nightly. The volunteers entered the huts by 21:00 each night and remained inside the huts until 06:30 the following morning. Each morning, the windows were closed and the exit traps blocked with a piece of cloth to prevent mosquitoes that entered from exiting. The traps were then put in a freezer at −20° C. to kill all the mosquitoes before being emptied for identification. By means of a sucking aspirator the verandas and rooms were visually searched for live mosquitoes and any insects found were collected in labelled cups. A 10-minute search was conducted for each hut (room and veranda traps). The exit traps were emptied into a labelled cup and all the mosquitoes placed in the freezer at −20° C. for about 30 minutes before morphological identification.
(§4) The Mosquito Magnet trap Model-X (MM-X trap made by the firm formerly known as American Biophysics (ABC), USA) is a 12V battery operated counter-flow trap that was used as the repellent dispersing device to evaluate the efficacy of repellent compounds or compositions disclosed herein. Four compounds, carvacrol, cumin alcohol, ethyl cinnamate, and butyl cinnamate, were evaluated in comparison to DEET as a nonproprietary conventional repellent in a first experiment. The chemical compounds were provided in liquid form: carvacrol (98%), butyl cinnamate (98%), ethyl cinnamate (98%), cumin alcohol (97%) and DEET (97%). […]

A further assay relates to Culex spp. The assay can be described thus: experimental hut field trial of spatial repellence, Culex. Conditions: single compound, 1 ml in open vial in MM-X trap, per night. How it is done: as §1, §2, §3, §4
The subject of assay [1] is Anopheles gambiae (Giles) ss strain 16CSS female mosquitoes. The assay can be described thus: warm body repellence assay (mosquito landings). Conditions: for median repellency (%) at 20 nmol/cm2: Anopheles gambiae, 2 min, 20 nmole per cm^2, read-out: Median Repellency (%). How it is done: To test the behavior of female mosquitoes to an essential oil containing OBP binding components, a previously described repellence assay [Kröber et al. (2010). An In Vitro Assay for Testing Mosquito Repellents Employing a Warm Body and Carbon Dioxide as a Behavioral Activator. Journal of the American Mosquito Control Association 26(4) 381-386] was conducted that measures the number of mosquito landings on a warm surface onto which an essential oil containing at least one candidate compound was applied.
To conduct a repellency assay, a selected essential oil or ethanol negative control was applied to a warm body at a dose of about 3.8 μg/cm^2 and allowed to dry for 40 seconds in order to allow evaporation of the solvent before introduction into the test cage with mosquitoes. As positive control for repellence, DEET dissolved in ethanol was applied to the warm body at the same dose. The treated warm body in conjunction with a pulse of carbon dioxide was introduced into the test cage containing fifty Anopheles gambiae (Giles) ss strain 16CSS female mosquitoes that were 4-11 days old and the number of mosquito landings on the warm body occurring within a 2-minute period was counted. Each candidate compound was tested in five different cages (i.e., 250 female mosquitoes) in a randomized design, and the ethanol control and up to four candidate compounds were tested in each cage. Raw data on numbers of landings by mosquitoes were analyzed using a linear mixed model accounting for treatment, experimental day, the individual cage, the number of females per cage and the level of the carbon dioxide pulse in ppm using R (R Development Core Team, 2010) and the packages LME4 (Bates and Maechler, Ime4: Linear mixed-effects models using {S4} classes.{R} package version 0.999375-32, 2009) and NLME (Pinheiro et al, nlme: Linear and Nonlinear Mixed Effects Models, 2010; the R Development Core Team, R: A Language and Environment for Statistical Computing, 2010). Repellent values were calculated from counted landings on treatments versus the overall landings on pooled controls.
To test the behavior of female mosquitoes to a candidate compound identified in Example 5, behavioral assays were made using the identified compounds. The repellent assay was performed as described in Example 3, except that candidate compounds were dissolved in ethanol and tested initially at doses between 1.0 and 5.0 μg/cm^2 (about 5-31.5 nmole/cm^2) and, whenever necessary, at lower and/or higher doses as well. Besides the compounds identified in Example 5, compounds related to these were also tested including ethyl-cinnamate and butyl-cinnamate (Table 4).
To test the behavior of female mosquitoes to various combinations of candidate compounds identified in Example 6, repellence assays were made as in Example 3. These repellent assays were made to compare the effectiveness of the strongest repellent compounds identified in Example 6, including, without limitation, carvacrol, ethyl cinnamate, butyl cinnamate, and cumin alcohol with that of DEET.
The doses tested were 2, 4, 6 10 and 20 nmol/cm^2 for the single compounds. The binary 50:50 mixtures were tested at 2, 6, 10 and 20 nmol/cm^2, with each compound making up half the amount tested, so that, for example, the 2 nmol/cm^2 concentration in column A+B represents 1 nmol/cm^2 of A and 1 nmol/cm^2 of B in a binary mixture. DEET was also tested at 25 nmol (top response) and carvacrol was tested at the additional dose of 2.5 nmol (second from left within its column). As an indication, DEET at 20 nmol/cm^2=3.8 μg/cm^2. Mosquitoes were activated using a puff of CO2 from a gas tank upon introduction of the warm body into the test cage containing 50±5 A. gambiae females and mosquito landings were counted for 2 minutes. Each treatment (dose) was tested using five test cages, i.e. on a total of 250 female A. gambiae. […]

Assay [2] deals with sand fly Lutzomyia longipalpis. The assay can be described thus: warm body repellence assay with sand flies. To be noted: 2 minutes, control 48. The protocol:
To test the effects of repellent compounds or compositions disclosed herein on other blood-feeding arthropods, a warm body repellence assay (Krober et. al. (2010). An In Vitro Assay for Testing Mosquito Repellents Employing a Warm Body and Carbon Dioxide as a Behavioral Activator. Journal of the American Mosquito Control Association 26(4): 381-386] was conducted using the sand fly Lutzomyia longipalpis (Diptera: Psychodidae), the principal vector of Leishmania (or leismaniasis) in the Americas.
[…] Fifty L. longipalpis sandflies (male:female ratio 1:1) of 3-7 days old were tested during the scotophase under conditions described for A. gambiae in Example 6. The test cages were lined with filter paper. Reduction in the number of landings by L. longipalpis sand fly females on a warm body treated with different test products compared to the control with solvent (ethanol p.a.) alone was used to evaluate repellence. Tests were conducted in complete darkness using IR LEDs to illuminate the warm body. Landings counted during 2 minutes were normalized by experimental day, cage, and number of females by a mixed linear model before testing for differences.

[3] abbreviates: 2 nmol (per cm^2, total for mixtures, 50:50).
Setting [4] is: 4 nmol (per cm^2, total for mixtures, 50:50).
Where [5] appears, read: 6 nmol (per cm^2, total for mixtures, 50:50).
Where [6] appears, read: 20 nmol (per cm^2, total for mixtures, 50:50).

Consider `CCOC(=O)C=Cc1ccccc1` [(E)-ethyl-cinnamate, ethyl 3-phenylprop-2-enoate], for which the “spatial repellent effect, induced exophily (in words)” value in the assay with Anopheles gambiae s.l. and in the assay with Culex spp. was “significantly lower than that of DEET” throughout. The Median repellence % was −18% in assay [1] (setting [3]), 18% in assay [1] (setting [4]), 35% in assay [1] (setting [5]) and 83% in assay [1] (setting [6]). Also, in assay [1], the median repellency (%) at 20 nmol/cm2 turned out to be 82.8%.
Turning to `CCCCOC(=O)C=Cc1ccccc1` [butyl-cinnamate, butyl 3-phenylprop-2-enoate], the “spatial repellent effect, induced exophily (in words)” value in the assay with Anopheles gambiae s.l. and in the assay with Culex spp. was “significantly lower than that of DEET” throughout. Further, the Median of landings in assay [2] (20 nmol/cm^2) is recorded as 49; in assay [2] (200 nmol/cm^2) it was 40. Besides, the Median repellence % in assay [1] (setting [3]) was −1%; in assay [1] (setting [4]), 28%; in assay [1] (setting [5]), 61%; in assay [1] (10 nmol (per cm^2, total for mixtures, 50:50)) it was 68%; in assay [1] (setting [6]) it was 89%. In assay [1], the median repellency (%) at 20 nmol/cm2 came to 88.7%.
